Measurements as given in patent US6355799B1, “Substituted benzene compounds, process for their preparation, and herbicidal and defoliant compositions containing them” (ISK Americas Incorporated, priority 1997, dated 2002).

Tests used:
Assay type in all cases: in vivo
[1] = system: johnsongrass (Sorghum halepense, SORHA); assay: Pre-emerge test, greenhouse herbicide activity screening; details: for Pre-emerge Herbicidal Activity SORHA: phytotoxicity rating 0-100, 14 days after application; for phytotoxicity rating SORHA: pre-emerge, 14 days after application, rating scale 0-100
Summary of the method: (§1)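 Compounds in acetone were track-sprayed at 187 l/ha, 15–1000 g ai/ha, onto sandy loam pots. Pre-emerge seeds were sown one day before spraying, with surface watering afterwards. Post-emerge plants were at the 2–3 leaf stage and sprayed with 0.25% v/v non-ionic surfactant. Injury was rated 0–100 at 14 days.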

[2] = system: large crabgrass (Digitaria sanguinalis, DIGSA); assay: as above; details: for Pre-emerge Herbicidal Activity DIGSA: phytotoxicity rating 0-100, 14 days after application; for phytotoxicity rating DIGSA: pre-emerge, 14 days after application, rating scale 0-100
Summary of the method: as §1

[3] = system: sicklepod (Cassia obtusifolia, CASOB); assay: as above; details: for Pre-emerge Herbicidal Activity CASOB: phytotoxicity rating 0-100, 14 days after application; for phytotoxicity rating CASOB: pre-emerge, 14 days after application, rating scale 0-100
Summary of the method: as §1

[4] = system: ivyleaf morningglory (Ipomoea hederacea, IPOHE); assay: as above; details: for Pre-emerge Herbicidal Activity IPOHE: phytotoxicity rating 0-100, 14 days after application; for phytotoxicity rating IPOHE: pre-emerge, 14 days after application, rating scale 0-100
Summary of the method: as §1

[5] = system: green foxtail (Setaria viridis, SETVI); assay: as above; details: for Pre-emerge Herbicidal Activity SETVI: phytotoxicity rating 0-100, 14 days after application; for phytotoxicity rating SETVI: pre-emerge, 14 days after application, rating scale 0-100
Summary of the method: as §1

[6] = system: lambsquarters (Chenopodium album, CHEAL); assay: as above; details: for Pre-emerge Herbicidal Activity CHEAL: phytotoxicity rating 0-100, 14 days after application; for phytotoxicity rating CHEAL: pre-emerge, 14 days after application, rating scale 0-100
Summary of the method: as §1

[7] = system: velvetleaf (Abutilon theophrasti, ABUTH); assay: as above; details: for Pre-emerge Herbicidal Activity ABUTH: phytotoxicity rating 0-100, 14 days after application; for phytotoxicity rating ABUTH: pre-emerge, 14 days after application, rating scale 0-100
Summary of the method: as §1

[8] = system: barnyardgrass (Echinochloa crus-galli, ECHCG); assay: as above; details: for Pre-emerge Herbicidal Activity ECHCG: phytotoxicity rating 0-100, 14 days after application; for phytotoxicity rating ECHCG: pre-emerge, 14 days after application, rating scale 0-100
Summary of the method: as §1

[9] = system: upland rice (Oryza sp., var. Tebonnet, RICE); assay: Post-emerge test, crop safety; details: 14 days after application; for phytotoxicity rating RICE (crop damage): post-emerge, rating scale 0-100; for Post-emerge phytotoxicity rating RICE (crop damage): rating scale 0-100 (0 no damage, 100 complete death)
Summary of the method: as §1

[10] = system: field corn (Zea mays L., var. Dekalb 535, CORN); assay: Post-emerge test, crop safety; details: 14 days after application; for phytotoxicity rating CORN (crop damage): post-emerge, rating scale 0-100; for Post-emerge phytotoxicity rating CORN (crop damage): rating scale 0-100 (0 no damage, 100 complete death)
Summary of the method: as §1

[11] = system: upland rice (Oryza sp., var. Tebonnet, RICE); assay: Pre-emerge test, crop safety; details: for Pre-emerge Herbicidal Activity RICE: crop damage rating 0-100, 14 days after application; for phytotoxicity rating RICE: pre-emerge, 14 days after application, rating scale 0-100
Summary of the method: (§2)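 Herbicidal damage is scored 0 (none) to 100 (complete plant death) two weeks after a simulated field spray. Rates span 15–1000 g ai/ha, delivered in acetone at 187 l/ha. For post-emergence treatments, plants have 2–3 leaves and the spray carries 0.25% v/v non-ionic surfactant.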

[12] = system: field corn (Zea mays L., var. Dekalb 535, CORN); assay: Pre-emerge test, crop safety; details: for Pre-emerge Herbicidal Activity CORN: crop damage rating 0-100, 14 days after application; for phytotoxicity rating CORN: pre-emerge, 14 days after application, rating scale 0-100
Summary of the method: as §2

[13] = system: johnsongrass (Sorghum halepense, SORHA); assay: Post-emerge test, greenhouse herbicide activity screening; details: 14 days after application; for phytotoxicity rating SORHA: post-emerge, rating scale 0-100; for Post-emerge Herbicidal Activity, phytotoxicity rating SORHA: rating scale 0-100 (0 no damage, 100 complete death)
Summary of the method: as §2

[14] = system: large crabgrass (Digitaria sanguinalis, DIGSA); assay: as above; details: 14 days after application; for phytotoxicity rating DIGSA: post-emerge, rating scale 0-100; for Post-emerge Herbicidal Activity, phytotoxicity rating DIGSA: rating scale 0-100 (0 no damage, 100 complete death)
Summary of the method: as §2

[15] = system: sicklepod (Cassia obtusifolia, CASOB); assay: as above; details: 14 days after application; for phytotoxicity rating CASOB: post-emerge, rating scale 0-100; for Post-emerge Herbicidal Activity, phytotoxicity rating CASOB: rating scale 0-100 (0 no damage, 100 complete death)
Summary of the method: as §2

[16] = system: ivyleaf morningglory (Ipomoea hederacea, IPOHE); assay: as above; details: 14 days after application; for phytotoxicity rating IPOHE: post-emerge, rating scale 0-100; for Post-emerge Herbicidal Activity, phytotoxicity rating IPOHE: rating scale 0-100 (0 no damage, 100 complete death)
Summary of the method: as §2

[17] = system: green foxtail (Setaria viridis, SETVI); assay: as above; details: 14 days after application; for phytotoxicity rating SETVI: post-emerge, rating scale 0-100; for Post-emerge Herbicidal Activity, phytotoxicity rating SETVI: rating scale 0-100 (0 no damage, 100 complete death)
Summary of the method: as §2

[18] = system: velvetleaf (Abutilon theophrasti, ABUTH); assay: as above; details: 14 days after application; for phytotoxicity rating ABUTH: post-emerge, rating scale 0-100; for Post-emerge Herbicidal Activity, phytotoxicity rating ABUTH: rating scale 0-100 (0 no damage, 100 complete death)
Summary of the method: as §2

[19] = system: redroot pigweed (Amaranthus retroflexus, AMARE); assay: as above; details: 14 days after application; for phytotoxicity rating AMARE: post-emerge
Summary of the method: as §2

[20] = system: barnyardgrass (Echinochloa crus-galli, ECHCG); assay: as above; details: 14 days after application; for phytotoxicity rating ECHCG: post-emerge, rating scale 0-100; for Post-emerge Herbicidal Activity, phytotoxicity rating ECHCG: rating scale 0-100 (0 no damage, 100 complete death)
Summary of the method: as §2

[21] = system: redroot pigweed (Amaranthus retroflexus, AMARE); assay: Pre-emerge test, greenhouse herbicide activity screening; details: for Pre-emerge Herbicidal Activity AMARE: phytotoxicity rating 0-100, 14 days after application; for phytotoxicity rating AMARE: pre-emerge, 14 days after application, rating scale 0-100
Summary of the method: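 Compounds in acetone were track-sprayed at 15-1000 g ai/ha (187 l/ha) on sandy loam pots: pre-emerge one day after seeding, post-emerge at 2-3 leaf stage with 0.25% v/v non-ionic surfactant. Phytotoxicity was rated 14 days later on a 0 (no damage) to 100 (complete death) scale.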

## CCOC(=O)C(C)Oc1c(Cl)cc(F)c(-n2c(=O)cc(C(F)(F)F)n(C)c2=O)c1NC(=O)c1ccc2ccccc2c1 (stereo not drawn) [2-191]
[1]; 63 g ai/ha
  Pre-emerge Herbicidal Activity SORHA: 0
[1]; 250 g ai/ha
  Pre-emerge Herbicidal Activity SORHA: 50
[2]; 63 g ai/ha
  Pre-emerge Herbicidal Activity DIGSA: 0
[2]; 250 g ai/ha
  Pre-emerge Herbicidal Activity DIGSA: 70
[3]; 63 g ai/ha
  Pre-emerge Herbicidal Activity CASOB: 10
[3]; 250 g ai/ha
  Pre-emerge Herbicidal Activity CASOB: 30
[4]; 63 g ai/ha
  Pre-emerge Herbicidal Activity IPOHE: 10
[4]; 250 g ai/ha
  Pre-emerge Herbicidal Activity IPOHE: 40
[5]; 63 g ai/ha
  Pre-emerge Herbicidal Activity SETVI: 40
[5]; 250 g ai/ha
  Pre-emerge Herbicidal Activity SETVI: 80
[6]; 63 g ai/ha
  Pre-emerge Herbicidal Activity CHEAL: 100
[6]; 250 g ai/ha
  Pre-emerge Herbicidal Activity CHEAL: 100
[7]; 63 g ai/ha
  Pre-emerge Herbicidal Activity ABUTH: 80
[7]; 250 g ai/ha
  Pre-emerge Herbicidal Activity ABUTH: 100
[8]; 63 g ai/ha
  Pre-emerge Herbicidal Activity ECHCG: 0
[8]; 250 g ai/ha
  Pre-emerge Herbicidal Activity ECHCG: 10
[9]; 63 g ai/ha
  phytotoxicity rating RICE (crop damage): 10
[9]; 250 g ai/ha
  phytotoxicity rating RICE (crop damage): 20
[10]; 63 g ai/ha
  phytotoxicity rating CORN (crop damage): 10
[10]; 250 g ai/ha
  phytotoxicity rating CORN (crop damage): 20
[11]; 63 g ai/ha
  Pre-emerge Herbicidal Activity RICE: 10
[11]; 250 g ai/ha
  Pre-emerge Herbicidal Activity RICE: 20
[12]; 63 g ai/ha
  Pre-emerge Herbicidal Activity CORN: 0
[12]; 250 g ai/ha
  Pre-emerge Herbicidal Activity CORN: 0
[13]; 63 g ai/ha
  phytotoxicity rating SORHA: 0
[13]; 250 g ai/ha
  phytotoxicity rating SORHA: 0
[14]; 63 g ai/ha
  phytotoxicity rating DIGSA: 0
[14]; 250 g ai/ha
  phytotoxicity rating DIGSA: 0
[15]; 63 g ai/ha
  phytotoxicity rating CASOB: 30
[15]; 250 g ai/ha
  phytotoxicity rating CASOB: 80
[16]; 63 g ai/ha
  phytotoxicity rating IPOHE: 80
[16]; 250 g ai/ha
  phytotoxicity rating IPOHE: 100
[17]; 63 g ai/ha
  phytotoxicity rating SETVI: 0
[17]; 250 g ai/ha
  phytotoxicity rating SETVI: 10
[18]; 63 g ai/ha
  phytotoxicity rating ABUTH: 70
[18]; 250 g ai/ha
  phytotoxicity rating ABUTH: 90
[19]; 63 g ai/ha, rating scale 0-100 (0 no damage, 100 complete death)
  phytotoxicity rating AMARE: 40
[19]; 250 g ai/ha, rating scale 0-100
  phytotoxicity rating AMARE: 90
[20]; 63 g ai/ha
  phytotoxicity rating ECHCG: 0
[20]; 250 g ai/ha
  phytotoxicity rating ECHCG: 0
[21]; 63 g ai/ha
  Pre-emerge Herbicidal Activity AMARE: 100
[21]; 250 g ai/ha
  Pre-emerge Herbicidal Activity AMARE: 100

## CCOC(=O)C(Cl)Cc1cc(Cl)cc(F)c1-n1nc(C)n(C(F)F)c1=O (stereo not drawn) [14-52]
[1]; 63 g ai/ha
  phytotoxicity rating SORHA: 0
[1]; 250 g ai/ha
  phytotoxicity rating SORHA: 0
[2]; 63 g ai/ha
  phytotoxicity rating DIGSA: 0
[2]; 250 g ai/ha
  phytotoxicity rating DIGSA: 0
[3]; 63 g ai/ha
  phytotoxicity rating CASOB: 0
[3]; 250 g ai/ha
  phytotoxicity rating CASOB: 0
[4]; 63 g ai/ha
  phytotoxicity rating IPOHE: 0
[4]; 250 g ai/ha
  phytotoxicity rating IPOHE: 30
[5]; 63 g ai/ha
  phytotoxicity rating SETVI: 0
[5]; 250 g ai/ha
  phytotoxicity rating SETVI: 0
[6]; 63 g ai/ha
  phytotoxicity rating CHEAL: 80
[6]; 250 g ai/ha
  phytotoxicity rating CHEAL: 100
[7]; 63 g ai/ha
  phytotoxicity rating ABUTH: 70
[7]; 250 g ai/ha
  phytotoxicity rating ABUTH: 100
[8]; 63 g ai/ha
  phytotoxicity rating ECHCG: 0
[8]; 250 g ai/ha
  phytotoxicity rating ECHCG: 0
[9]; Rate 63 g ai/ha
  Post-emerge phytotoxicity rating RICE (crop damage): 0
[9]; Rate 250 g ai/ha
  Post-emerge phytotoxicity rating RICE (crop damage): 0
[10]; Rate 63 g ai/ha
  Post-emerge phytotoxicity rating CORN (crop damage): 0
[10]; Rate 250 g ai/ha
  Post-emerge phytotoxicity rating CORN (crop damage): 10
[11]; 63 g ai/ha
  phytotoxicity rating RICE: 0
[11]; 250 g ai/ha
  phytotoxicity rating RICE: 0
[12]; 63 g ai/ha
  phytotoxicity rating CORN: 0
[12]; 250 g ai/ha
  phytotoxicity rating CORN: 0
[13]; Rate 63 g ai/ha
  Post-emerge Herbicidal Activity, phytotoxicity rating SORHA: 0
[13]; Rate 250 g ai/ha
  Post-emerge Herbicidal Activity, phytotoxicity rating SORHA: 0
[14]; Rate 63 g ai/ha
  Post-emerge Herbicidal Activity, phytotoxicity rating DIGSA: 0
[14]; Rate 250 g ai/ha
  Post-emerge Herbicidal Activity, phytotoxicity rating DIGSA: 0
[15]; Rate 63 g ai/ha
  Post-emerge Herbicidal Activity, phytotoxicity rating CASOB: 0
[15]; Rate 250 g ai/ha
  Post-emerge Herbicidal Activity, phytotoxicity rating CASOB: 70
[16]; Rate 63 g ai/ha
  Post-emerge Herbicidal Activity, phytotoxicity rating IPOHE: 100
[16]; Rate 250 g ai/ha
  Post-emerge Herbicidal Activity, phytotoxicity rating IPOHE: 100
[17]; Rate 63 g ai/ha
  Post-emerge Herbicidal Activity, phytotoxicity rating SETVI: 0
[17]; Rate 250 g ai/ha
  Post-emerge Herbicidal Activity, phytotoxicity rating SETVI: 0
[18]; Rate 63 g ai/ha
  Post-emerge Herbicidal Activity, phytotoxicity rating ABUTH: 90
[18]; Rate 250 g ai/ha
  Post-emerge Herbicidal Activity, phytotoxicity rating ABUTH: 100
[19]; Rate 63 g ai/ha, rating scale 0-100 (0 no damage, 100 complete death)
  Post-emerge Herbicidal Activity, phytotoxicity rating AMARE: 20
[19]; Rate 250 g ai/ha, rating scale 0-100 (0 no damage, 100 complete death)
  Post-emerge Herbicidal Activity, phytotoxicity rating AMARE: 50
[20]; Rate 63 g ai/ha
  Post-emerge Herbicidal Activity, phytotoxicity rating ECHCG: 0
[20]; Rate 250 g ai/ha
  Post-emerge Herbicidal Activity, phytotoxicity rating ECHCG: 10
[21]; 63 g ai/ha
  phytotoxicity rating AMARE: 40
[21]; 250 g ai/ha
  phytotoxicity rating AMARE: 90
